Assay results: ChEMBL document CHEMBL2216752, “Carnitine palmitoyltransferase (CPT) modulators: a medicinal chemistry perspective on 35 years of research” (J Med Chem, 2011)

Assays:
[1] = target: T1, Carnitine O-palmitoyltransferase 2, mitochondrial (Homo sapiens, UniProt P23786); experiment: Competitive inhibition of CPT2 in heart mitochondria using carnitine
T1 sequence (P23786 whole entry): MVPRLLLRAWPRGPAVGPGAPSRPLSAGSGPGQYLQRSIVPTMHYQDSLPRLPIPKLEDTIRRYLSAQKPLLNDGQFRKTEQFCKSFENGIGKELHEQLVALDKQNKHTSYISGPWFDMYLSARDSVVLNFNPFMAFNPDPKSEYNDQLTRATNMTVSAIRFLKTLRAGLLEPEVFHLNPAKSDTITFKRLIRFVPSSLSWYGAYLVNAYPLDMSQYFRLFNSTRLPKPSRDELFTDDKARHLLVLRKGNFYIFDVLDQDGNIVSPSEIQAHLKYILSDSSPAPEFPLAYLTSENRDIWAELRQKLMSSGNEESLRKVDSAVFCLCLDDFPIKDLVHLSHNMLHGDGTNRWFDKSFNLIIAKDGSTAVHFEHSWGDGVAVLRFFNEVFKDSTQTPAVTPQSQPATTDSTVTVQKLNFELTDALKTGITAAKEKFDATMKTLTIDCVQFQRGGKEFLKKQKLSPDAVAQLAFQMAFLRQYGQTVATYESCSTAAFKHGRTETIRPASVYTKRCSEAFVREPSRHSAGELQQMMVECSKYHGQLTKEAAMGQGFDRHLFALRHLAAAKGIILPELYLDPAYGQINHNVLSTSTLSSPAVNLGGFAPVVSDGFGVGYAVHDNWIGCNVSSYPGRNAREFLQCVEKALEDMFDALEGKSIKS

[2] = target: T1, Carnitine O-palmitoyltransferase 2, mitochondrial; experiment: Competitive inhibition of CPT2 in liver mitochondria using carnitine
[3] = target: T1, Carnitine O-palmitoyltransferase 2, mitochondrial; experiment: Competitive inhibition of CPT2
Rattus norvegicus [4] = experiment: Reduction in KB level in Sprague-Dawley rat at 0.44 mg/kg, po; assay type: functional; set-up: scale not given: the % may be the effect or the level left
Rattus norvegicus [5] = experiment: Reduction in glucose level in Sprague-Dawley rat at 88 mg/kg, po; assay type: functional; set-up: scale not given: the % may be the effect or the level left
[6] = Inhibition of carnitine palmitoyltransferase in rat liver mitochondria assessed as conversion of [14C]palmitic acid to [14C]palmitoylcarnitine by radiometric assay
[7] = Inhibition of carnitine palmitoyltransferase in 18 hr fasted rat hepatocytes; assay type: cell-based; conditions: hepatocyte
[8] = Competitive inhibition of carnitine palmitoyltransferase using palmitoyl-CoA
[9] = Inhibition of carnitine palmitoyltransferase in 18 hr fasted rat liver homogenates; assay type: tissue-based
[10] = Inhibition of carnitine palmitoyltransferase in rat heart mitochondria assessed as conversion of [14C]palmitic acid to [14C]palmitoylcarnitine by radiometric assay
[11] = Inhibition of rat FAO
[12] = target: T2, Carnitine O-palmitoyltransferase 1, liver isoform (Homo sapiens, UniProt P50416); experiment: Inhibition of human CPT1A
T2 sequence (P50416 whole entry): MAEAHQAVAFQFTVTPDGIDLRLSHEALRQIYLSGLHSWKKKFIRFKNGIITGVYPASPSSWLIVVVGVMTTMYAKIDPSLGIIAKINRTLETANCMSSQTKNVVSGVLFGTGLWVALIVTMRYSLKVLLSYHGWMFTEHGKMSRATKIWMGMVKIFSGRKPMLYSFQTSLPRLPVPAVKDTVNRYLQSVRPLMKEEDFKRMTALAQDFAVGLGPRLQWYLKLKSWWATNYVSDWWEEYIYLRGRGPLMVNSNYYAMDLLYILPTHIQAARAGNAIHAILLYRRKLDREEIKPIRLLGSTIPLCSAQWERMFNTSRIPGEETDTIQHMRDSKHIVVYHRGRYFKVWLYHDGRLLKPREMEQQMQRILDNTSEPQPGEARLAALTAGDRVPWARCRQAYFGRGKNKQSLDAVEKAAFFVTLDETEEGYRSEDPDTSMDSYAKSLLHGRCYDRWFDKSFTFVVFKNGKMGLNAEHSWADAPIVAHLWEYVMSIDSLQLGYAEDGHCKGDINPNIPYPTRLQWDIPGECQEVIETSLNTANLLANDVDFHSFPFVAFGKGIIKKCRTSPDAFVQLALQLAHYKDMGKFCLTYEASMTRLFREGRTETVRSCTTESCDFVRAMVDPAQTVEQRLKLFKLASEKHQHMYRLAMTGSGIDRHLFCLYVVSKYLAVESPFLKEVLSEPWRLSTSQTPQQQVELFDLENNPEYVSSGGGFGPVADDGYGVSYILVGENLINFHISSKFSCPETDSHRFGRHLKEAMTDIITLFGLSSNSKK

[13] = target: T1, Carnitine O-palmitoyltransferase 2, mitochondrial; experiment: Inhibition of human CPT2
Mus musculus [14] = experiment: Reduction in food intake in C57BL/6J mouse at 250 pmol/day, icv for 4 days; assay type: functional; set-up: scale not given: the % may be the effect or the level left
[15] = Inhibition of human FAO
[16] = Critical micelle concentration of compound; assay type: physicochemical
Mus musculus [17] = experiment: Reduction in glucose level in db/db mouse at 30 mg/kgl/day, po for 12 days; assay type: functional; set-up: scale not given: the % may be the effect or the level left; conditions: dose 30 mg/kg
[18] = target: T3, Carnitine O-palmitoyltransferase 1, muscle isoform (Homo sapiens, UniProt Q92523); experiment: Inhibition of human CPT1B
T3 sequence (Q92523 whole entry): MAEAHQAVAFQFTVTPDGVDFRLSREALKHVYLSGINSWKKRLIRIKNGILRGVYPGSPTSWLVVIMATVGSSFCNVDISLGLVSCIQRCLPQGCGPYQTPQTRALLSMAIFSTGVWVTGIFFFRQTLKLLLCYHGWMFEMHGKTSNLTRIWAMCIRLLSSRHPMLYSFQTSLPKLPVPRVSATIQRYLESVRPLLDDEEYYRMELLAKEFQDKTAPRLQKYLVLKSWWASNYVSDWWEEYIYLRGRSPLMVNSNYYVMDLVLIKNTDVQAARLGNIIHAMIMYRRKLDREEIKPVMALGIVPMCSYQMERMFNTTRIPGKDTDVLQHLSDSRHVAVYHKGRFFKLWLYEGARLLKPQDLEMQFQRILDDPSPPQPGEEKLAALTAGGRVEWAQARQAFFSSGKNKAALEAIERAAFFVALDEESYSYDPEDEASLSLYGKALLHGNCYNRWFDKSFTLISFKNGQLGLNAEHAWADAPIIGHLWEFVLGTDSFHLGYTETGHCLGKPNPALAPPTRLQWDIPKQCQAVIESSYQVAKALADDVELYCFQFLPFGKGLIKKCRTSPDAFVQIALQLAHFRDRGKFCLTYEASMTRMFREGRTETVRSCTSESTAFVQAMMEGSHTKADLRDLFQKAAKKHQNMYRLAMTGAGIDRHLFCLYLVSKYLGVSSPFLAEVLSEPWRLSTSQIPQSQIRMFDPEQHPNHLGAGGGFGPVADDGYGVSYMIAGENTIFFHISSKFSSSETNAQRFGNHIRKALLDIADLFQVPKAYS

Mus musculus [19] = experiment: Reduction in body weight in C57BL/6J mouse at 250 pmol/day, icv for 4 days; assay type: functional; set-up: scale not given: the % may be the effect or the level left
Rattus norvegicus [20] = experiment: Inhibition of ketogenesis in 17 hrs fasted po dosed rat; assay type: functional
Mus musculus [21] = experiment: Increase in circulating FFA level in db/db mouse at 50 mg/kg, po bid for 45 days; assay type: functional
Homo sapiens [22] = experiment: Reduction in fasting insulin in NIDD patient at 450 mg/day, po for 15 days; assay type: functional; set-up: scale not given: the % may be the effect or the level left
Mus musculus [23] = experiment: Reduction in water consumption in db/db mouse at 50 mg/kg, po bid for 45 days; assay type: functional; set-up: scale not given: the % may be the effect or the level left
Cynomolgus monkey = experiment: Inhibition of ketogenesis in fasted po dosed cynomolgus monkey; assay type: functional; conditions: Macaca fascicularis
Mus musculus [24] = experiment: Reduction in serum fructosamine level in db/db mouse at 50 mg/kg, po bid for 45 days; assay type: functional; set-up: scale not given: the % may be the effect or the level left
Rattus norvegicus [25] = experiment: Reduction in glucose production in Sprague-Dawley rat at 5 to 25 pmol, icv administered as one or two single doses; assay type: functional; set-up: scale not given: the % may be the effect or the level left
Mus musculus [26] = experiment: Reduction in glucose level in db/db mouse at 80 mg/kgl/day, po for 12 days; assay type: functional; set-up: scale not given: the % may be the effect or the level left; conditions: dose 80 mg/kg
[27] = Half life in NIDD patient at 150 to 450 mg/day, po for 15 days; assay type: ADME, organism-based; conditions: human, in vivo
Mus musculus [28] = experiment: Reduction in liver glycogen level in db/db mouse at 50 mg/kg, po bid for 45 days; assay type: functional; set-up: scale not given: the % may be the effect or the level left
Mus musculus [29] = experiment: Reduction in blood glucose level in db/db mouse at 50 mg/kg, po bid for 45 days; assay type: functional; set-up: scale not given: the % may be the effect or the level left
Homo sapiens [30] = experiment: Reduction in HOMA index in NIDD patient at 450 mg/day, po for 15 days; assay type: functional; set-up: scale not given: the % may be the effect or the level left
Mus musculus [31] = experiment: Reduction in serum glucose in db/db mouse at 50 mg/kg, po bid for 45 days; assay type: functional; set-up: scale not given: the % may be the effect or the level left
Mus musculus [32] = experiment: Increase in liver TG level in db/db mouse at 50 mg/kg, po bid for 45 days; assay type: functional
[33] = target: T4, Carnitine O-palmitoyltransferase 2, mitochondrial (Rattus norvegicus, UniProt P18886); experiment: Inhibition of rat CPT2
T4 sequence (P18886 whole entry): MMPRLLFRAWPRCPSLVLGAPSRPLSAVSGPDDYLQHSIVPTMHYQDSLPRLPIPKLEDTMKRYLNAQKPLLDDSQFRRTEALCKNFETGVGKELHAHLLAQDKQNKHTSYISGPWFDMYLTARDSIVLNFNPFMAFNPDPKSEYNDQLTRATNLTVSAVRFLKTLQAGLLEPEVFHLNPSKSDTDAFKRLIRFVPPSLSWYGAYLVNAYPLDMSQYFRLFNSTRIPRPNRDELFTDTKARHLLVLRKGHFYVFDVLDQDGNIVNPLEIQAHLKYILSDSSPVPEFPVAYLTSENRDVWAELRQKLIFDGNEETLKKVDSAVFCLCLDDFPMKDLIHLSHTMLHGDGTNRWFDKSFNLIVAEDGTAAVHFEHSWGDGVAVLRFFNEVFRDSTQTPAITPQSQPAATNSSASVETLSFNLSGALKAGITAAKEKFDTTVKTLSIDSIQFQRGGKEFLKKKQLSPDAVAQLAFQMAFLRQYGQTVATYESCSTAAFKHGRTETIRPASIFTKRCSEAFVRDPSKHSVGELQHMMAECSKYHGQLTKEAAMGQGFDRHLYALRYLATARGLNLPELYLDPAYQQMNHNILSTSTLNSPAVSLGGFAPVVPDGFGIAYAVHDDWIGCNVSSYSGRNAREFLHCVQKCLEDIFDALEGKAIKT

[34] = target: Carnitine O-palmitoyltransferase 1, liver isoform (Rattus norvegicus) (UniProt P32198); experiment: Increase in CPT1 activity in rat hepatocytes using [3H]carnitine by radiometric assay; assay type: cell-based; conditions: Hepatocyte
Carnitine O-palmitoyltransferase 1, liver isoform (Rattus norvegicus), sequence (P32198 whole entry, canonical isoform): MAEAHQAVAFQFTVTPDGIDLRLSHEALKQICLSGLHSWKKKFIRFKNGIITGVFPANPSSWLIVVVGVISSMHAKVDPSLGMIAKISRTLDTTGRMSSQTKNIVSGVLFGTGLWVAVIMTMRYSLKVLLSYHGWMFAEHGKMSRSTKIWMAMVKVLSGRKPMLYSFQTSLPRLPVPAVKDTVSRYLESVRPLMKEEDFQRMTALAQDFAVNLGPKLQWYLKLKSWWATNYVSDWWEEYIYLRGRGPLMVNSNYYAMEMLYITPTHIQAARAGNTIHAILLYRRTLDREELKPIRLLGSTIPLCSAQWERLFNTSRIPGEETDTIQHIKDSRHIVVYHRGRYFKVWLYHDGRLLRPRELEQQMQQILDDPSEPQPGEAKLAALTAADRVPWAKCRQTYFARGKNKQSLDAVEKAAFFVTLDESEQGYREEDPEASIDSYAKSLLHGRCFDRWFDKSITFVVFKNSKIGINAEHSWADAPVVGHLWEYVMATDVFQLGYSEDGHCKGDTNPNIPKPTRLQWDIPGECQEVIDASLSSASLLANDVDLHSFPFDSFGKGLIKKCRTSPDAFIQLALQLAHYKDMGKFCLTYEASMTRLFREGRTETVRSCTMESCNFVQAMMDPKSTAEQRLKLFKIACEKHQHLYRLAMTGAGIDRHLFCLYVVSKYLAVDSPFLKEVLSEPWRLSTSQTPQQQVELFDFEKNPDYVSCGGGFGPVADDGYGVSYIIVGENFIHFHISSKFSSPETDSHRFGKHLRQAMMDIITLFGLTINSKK

Mus musculus [35] = experiment: Induction of weight loss in DIO mouse at 15 mg/kg, ip administered single dose measured 20 hrs post dose (reference value: 2 %); assay type: functional; conditions: route intraperitoneal
Mus musculus [36] = experiment: Increase in energy production in DIO mouse at 15 mg/kg, ip administered single dose; assay type: functional; conditions: route intraperitoneal
[37] = target: Carnitine O-palmitoyltransferase 1, muscle isoform (Homo sapiens) (UniProt Q92523); experiment: Increase in muscle CPT1 activity expressed in yeast mitochondrial extracts; conditions: Muscle tissue
Hepatocyte = experiment: Increase in palmitate oxidation rat hepatocytes a at 80 uM; assay type: functional
[38] = target: T5, Carnitine O-palmitoyltransferase 1, liver isoform (Homo sapiens) (UniProt P50416); experiment: Increase in liver CPT1 activity expressed in yeast mitochondrial extracts
T5 sequence (whole entry): T2 sequence (P50416 whole entry)

CCCCCCCCCCCCCCC[C@@]1(O)C[N+](C)(C)C[C@@H](CC(=O)[O-])O1 (racemic)
Ki [1]: 2800 nM
Ki [2]: 4200 nM
Ki [3]: 160 nM

CCCCCCCCCCCCCCOP(=O)([O-])O[C@H](CC(=O)O)C[N+](C)(C)C
Activity (Rattus norvegicus [4]): 77%
Activity (Rattus norvegicus [5]): 20%
IC50 [6]: 17400 nM
IC50 [7]: 3000 nM
Ki [8]: 3600 nM
IC50 [9]: 36000 nM
IC50 [10]: 62000 nM

CCCCCCOc1cccc(OCCCCNC(=O)N[C@H](CC(=O)[O-])C[N+](C)(C)C)c1
IC50 [11]: 30 nM
IC50 [12]: 1700 nM
IC50 [13]: 5400 nM
Activity (Mus musculus [14]): 25%
IC50 [15]: 730 nM
CMC [16]: 0.79 mM
IC50 [6]: 130 nM
Activity (Mus musculus [17]): 41%
IC50 [18]: 85300 nM
Activity (Mus musculus [19]): 7%
ED50 (Rattus norvegicus [20]): 3.7 mg/kg
IC50 [10]: 5440 nM

CCCCCCCCCCCCCCNC(=O)N[C@H](CC(=O)[O-])C[N+](C)(C)C
IC50 [11]: 980 nM
Activity (Mus musculus [21]): 20%
Activity (Homo sapiens [22]): 12%
IC50 [12]: 1050 nM
IC50 [13]: 160 nM
Activity (Mus musculus [23]): 30%
IC50 [15]: 4000 nM
ED50 (Cynomolgus monkey): 0.5 mg/kg
CMC [16]: 0.029 mM
Activity (Mus musculus [24]): 30%
IC50 [6]: 1100 nM
Activity (Rattus norvegicus [25]): 45%
Activity (Mus musculus [26]): 26%
IC50 [18]: 5400 nM
half-life [27]: 25 h
Activity (Mus musculus [28]): 25%
Activity (Mus musculus [29]): 39%
Activity (Homo sapiens [30]): 25%
Ki [8]: 360 nM
Activity (Mus musculus [31]): 25%
Activity (Mus musculus [32]): 38%
IC50 [10]: 43400 nM
IC50 [33]: 380 nM

C=C1C(=O)O[C@H](CCCCCCCC)[C@H]1C(=O)O
IC50 [11]: > 100000 nM
Activity [34]: 250%
Activity (Mus musculus [35]): 4.4%
IC50 [15]: 21900 nM
Activity (Mus musculus [36]): 32.9%
Activity [37]: 20%
Activity (Hepatocyte): 750%
Activity [38]: 20%
